Measured values as given in ChEMBL document CHEMBL5370648, “Rational Design of Bioorthogonally Activatable PROTAC for Tumor-Targeted Protein Degradation” (J Med Chem, 2023).
Activity calls are given as the source filed them. No cut-off for these calls is given here.

Experiments:
MDA-MB-231 [1] = assay: Cytotoxicity against human MDA-MB-231 cells assessed as inhbition of cell growth at 20.0 uM measured after 48 hrs by CCK-8 method; assay type: functional, cell-based
T47D [2] = assay: Cytotoxicity against human T47D cells assessed as inhbition of cell growth at 20.0 uM measured after 48 hrs by CCK-8 method; assay type: functional, cell-based
[3] = Retention time of the compound by HPLC method; assay type: physicochemical
[4] = target: T1, von Hippel-Lindau disease tumor suppressor/Bromodomain-containing protein 4 (Homo sapiens, UniProt O60885+P40337); assay: PROTAC activity at BRD4/VHL E3 ligase in human T47D cells assessed as activation of caspase-3 expression incubated for 48 hrs by Western blot analysis; assay type: cell-based
[5] = target: T1, von Hippel-Lindau disease tumor suppressor/Bromodomain-containing protein 4; assay: PROTAC activity at BRD4/VHL E3 ligase in human MDA-MB-231 cells assessed as suppression of c-Myc expression incubated for 48 hrs by Western blot analysis; assay type: cell-based
[6] = target: T1, von Hippel-Lindau disease tumor suppressor/Bromodomain-containing protein 4; assay: In vivo PROTAC activity at BRD4/VHL E3 ligase in BALB/c nude mouse xenografted with human MCF7 cells assessed as reduction in BRD4 protein level in tumor 10 mg/kg measured after 48 hrs by Western blot analysis; assay type: functional, organism-based
MCF7 [7] = assay: Antitumor activity against human MCF7 cells xenografted in BALB/c nude mouse assessed as fold increase in tumor volume at 10 mg/kg measured at day 23 post injection; assay type: functional; details: time 23 day
[8] = target: T1, von Hippel-Lindau disease tumor suppressor/Bromodomain-containing protein 4; assay: PROTAC activity at BRD4/VHL E3 ligase in human T47D cells assessed as induction of degradation of BRD4 at upto 1000 nM incubated for 48 hrs in presence of MG132 by immunofluorescence staining assay; assay type: cell-based
MCF7 [9] = assay: Cytotoxicity against human MCF7 cells assessed as inhbition of cell growth measured after 48 hrs by CCK-8 method; assay type: functional, cell-based; details: MCF7, 48 h
[10] = target: T1, von Hippel-Lindau disease tumor suppressor/Bromodomain-containing protein 4; assay: PROTAC activity at BRD4/VHL E3 ligase in human T47D cells assessed as induction of degradation of BRD4 at upto 1000 nM incubated for 48 hrs in presence of MLN4924 by immunofluorescence staining assay; assay type: cell-based
MCF7 [11] = assay: Antitumor activity against human MCF7 cells xenografted in BALB/c nude mouse assessed as apoptosis at 10 mg/kg measured after 48 hrs by Western blot analysis; assay type: functional, organism-based
[12] = target: T1, von Hippel-Lindau disease tumor suppressor/Bromodomain-containing protein 4; assay: PROTAC activity at BRD4/VHL E3 ligase in human T47D cells assessed as decrease in BRD4 expression incubated for 48 hrs by Western blot analysis; assay type: cell-based
MCF7 [13] = assay: Antitumor activity against human MCF7 cells xenografted in BALB/c nude mouse assessed as tumor growth inhibition at 10 mg/kg measured after 16 days; assay type: functional, organism-based; details: time 16.0 day
[14] = target: T1, von Hippel-Lindau disease tumor suppressor/Bromodomain-containing protein 4; assay: PROTAC activity at BRD4/VHL E3 ligase in human MDA-MB-231 cells assessed as degradation of BRD4 expression incubated for 48 hrs by Western blot analysis; assay type: cell-based
[15] = target: T1, von Hippel-Lindau disease tumor suppressor/Bromodomain-containing protein 4; assay: PROTAC activity at BRD4/VHL E3 ligase in human MCF7 cells assessed as decrease in BRD4 expression incubated for 48 hrs by Western blot analysis; assay type: cell-based
[16] = target: T1, von Hippel-Lindau disease tumor suppressor/Bromodomain-containing protein 4; assay: PROTAC activity at BRD4/VHL E3 ligase in human T47D cells assessed as induction of degradation of intracellular BRD4 at 200 nM incubated for 48 hrs by immunofluorescence staining assay; assay type: cell-based
[17] = target: T1, von Hippel-Lindau disease tumor suppressor/Bromodomain-containing protein 4; assay: PROTAC activity at BRD4/VHL E3 ligase in human MDA-MB-231 cells assessed as induction of degradation of intracellular BRD4 at 200 nM incubated for 48 hrs by immunofluorescence staining assay; assay type: cell-based
[18] = target: T1, von Hippel-Lindau disease tumor suppressor/Bromodomain-containing protein 4; assay: PROTAC activity at BRD4/VHL E3 ligase in human MDA-MB-231 cells assessed as activation of caspase-3 expression incubated for 48 hrs by Western blot analysis; assay type: cell-based
[19] = target: T1, von Hippel-Lindau disease tumor suppressor/Bromodomain-containing protein 4; assay: PROTAC activity at BRD4/VHL E3 ligase in human MCF7 cells assessed as activation of caspase-3 expression incubated for 48 hrs by Western blot analysis; assay type: cell-based
[20] = target: T1, von Hippel-Lindau disease tumor suppressor/Bromodomain-containing protein 4; assay: PROTAC activity at BRD4/VHL E3 ligase in human T47D cells assessed as suppression of c-Myc expression incubated for 48 hrs by Western blot analysis; assay type: cell-based
[21] = Toxicity in BALB/c nude mouse assessed as animal death at 10 mg/kg measured after 16 days; assay type: organism-based; details: in vivo, 384 h, time 16 day
MCF7 [22] = assay: Antitumor activity against human MCF7 cells xenografted in BALB/c nude mouse model assessed as inhibition of tumor cell proliferation by measuring reduction in Ki67 staining at 10 mg/kg administered for 16 days by immunohistochemical analysis; assay type: functional, organism-based; details: time 16.0 day
T47D [23] = assay: Cytotoxicity against human T47D cells assessed as inhbition of cell growth measured after 48 hrs by CCK-8 method; assay type: functional, cell-based
MDA-MB-231 [24] = assay: Cytotoxicity against human MDA-MB-231 cells assessed as inhbition of cell growth measured after 48 hrs by CCK-8 method; assay type: functional, cell-based; details: MDA-MB-231, 48 h
[25] = target: T1, von Hippel-Lindau disease tumor suppressor/Bromodomain-containing protein 4; assay: PROTAC activity at BRD4/VHL E3 ligase in human MCF7 cells assessed as induction of degradation of intracellular BRD4 at 200 nM incubated for 48 hrs by immunofluorescence staining assay; assay type: cell-based
[26] = target: T1, von Hippel-Lindau disease tumor suppressor/Bromodomain-containing protein 4; assay: PROTAC activity at BRD4/VHL E3 ligase in human T47D cells assessed as degradation of BRD4 expression incubated for 48 hrs by Western blot analysis; assay type: cell-based
[27] = target: T1, von Hippel-Lindau disease tumor suppressor/Bromodomain-containing protein 4; assay: PROTAC activity at BRD4/VHL E3 ligase in human MCF7 cells assessed as suppression of c-Myc expression incubated for 48 hrs by Western blot analysis; assay type: cell-based
[28] = target: T1, von Hippel-Lindau disease tumor suppressor/Bromodomain-containing protein 4; assay: PROTAC activity at BRD4/VHL E3 ligase in human MCF7 cells assessed as degradation of BRD4 expression incubated for 48 hrs by Western blot analysis; assay type: cell-based
[29] = target: T1, von Hippel-Lindau disease tumor suppressor/Bromodomain-containing protein 4; assay: PROTAC activity at BRD4/VHL E3 ligase in human MDA-MB-231 cells assessed as decrease in BRD4 expression incubated for 48 hrs by Western blot analysis; assay type: cell-based

T1 sequence (P40337 whole entry, looked up, other chains not shown): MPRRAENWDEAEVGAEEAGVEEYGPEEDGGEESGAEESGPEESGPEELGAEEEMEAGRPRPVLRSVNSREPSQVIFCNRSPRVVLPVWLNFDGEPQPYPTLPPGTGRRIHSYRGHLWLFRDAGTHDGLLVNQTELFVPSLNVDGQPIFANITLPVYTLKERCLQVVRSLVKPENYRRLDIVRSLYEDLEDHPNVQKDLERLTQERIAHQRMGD

## Cc1ncsc1-c1ccc([C@H](C)NC(=O)[C@@H]2C[C@@H](OC(=O)OC3/C=C/CCCCC3)CN2C(=O)[C@@H](NC(=O)COCCOCCOCCNC(=O)CC2N=C(c3ccc(Cl)cc3)c3c(sc(C)c3C)-n3c(C)nnc32)C(C)(C)C)cc1 (stereo not given in full)
MDA-MB-231 [1]
  Activity: inactive
T47D [2]
  Activity: inactive
[3]
  Retention_time: 19.3 min

## Cc1ncsc1-c1ccc([C@H](C)NC(=O)[C@@H]2C[C@@H](O)CN2C(=O)[C@@H](NC(=O)COCCOCCOCCNC(=O)CC2N=C(c3ccc(Cl)cc3)c3c(sc(C)c3C)-n3c(C)nnc32)C(C)(C)C)cc1 (stereo not given in full)
[4]
  Activity: Active
[5]
  Activity: Active
[6]
  Activity: Active
MCF7 [7]
  fold change (FC): 1.58
[8]
  Activity: inactive
MCF7 [9]
  IC50: 0.183 µM
[10]
  Activity: inactive
MCF7 [11]
  Activity: Active
[12]
  EC50: 0.0566 µM
MCF7 [13]
  Activity: Active
[14]
  Activity: Active
[15]
  EC50: 0.0503 µM
[16]
  Activity: Active
[17]
  Activity: Active
[18]
  Activity: Active
[19]
  Activity: Active
[20]
  Activity: Active
[21]
  Activity: Toxic
MCF7 [22]
  Activity: Active
T47D [23]
  IC50: 0.253 µM
MDA-MB-231 [24]
  IC50: 0.225 µM
[25]
  Activity: Active
[3]
  Retention_time: 18.96 min
[26]
  Activity: Active
[27]
  Activity: Active
[28]
  Activity: Active
[29]
  EC50: 0.00396 µM
